Source: patent US10221179B2, “Substituted pyrazoloquinazolinones and pyrroloquinazolinones as allosteric modulators of group II metabotropic glutamate receptors” (DOMAIN THERAPEUTICS, priority 2014, dated 2019)

Experiments:
human mGluR2 (hmGluR2) = target: T1, human mGluR2 (hmGluR2) (Homo sapiens, UniProt Q14416); experiment: Ca++ functional assay, human mGluR2 transiently over-expressed in HEK-293 cells (agonist and negative allosteric modulator modes); assay type: cell-based; conditions: glutamate at EC80, intracellular calcium (Fluo4AM), read-out: hmGluR2 negative allosteric modulator activity IC50
T1 construct: expressed in transfected cells; host or cells: HEK-293 cells, transient co-transfection by electroporation
Procedure: Example 127: Human mGluR2 and mGluR3 Evaluation Using Ca^++ Functional Assay
Examples of the present invention were tested successively for their agonist and negative allosteric modulator activities on human mGluR2 (hmGluR2) and mGluR3 (hmGluR3) transiently over-expressed in HEK-293 cells.
Cell Culture and Transfection
HEK-293 cells are maintained in Modified Eagle's Medium supplemented with 10% Foetal Calf Serum, 1% Penicillin/Streptomycin and 1% non-essential amino acids at 37° C./5% CO2.
Cells are co-transfected by electroporation with four DNA plasmids encoding hmGluR2 or hmGluR3, a chimeric G protein allowing redirection of the activation signal to intracellular calcium pathway (Brabet I et al., Neuropharmacology 37(8), 1043-51, 1998), and two glutamate transporters minimizing receptor desensitization by endogenous glutamate. After transfection, cells are cultured for 24 h at 37° C./5% CO2.
Calcium Assay IC50 Determination
Receptor activity is detected by changes in intracellular calcium measured using the fluorescent Ca^2+ sensitive dye, Fluo4AM (Molecular Probes).
On the day of the assay, culture medium is aspirated and replaced during 3 hours by medium without serum supplemented with 1% Glutamax, 1% Penicillin/Streptomycin and 1% non-essential amino acids. Then, cells are washed with freshly prepared buffer B (HBSS 1×(PAA), Hepes 20 mM, MgSO4-7H2O 1 mM, Na2CO3 3.3 mM, CaCl2-2H2O 1.3 mM, 0.1% BSA, Probenecid 2.5 mM) and loaded at 37° C. in 5% CO2 for 1.5 hours with buffer B containing 1 μM Fluo4AM, 0.1 mg/mL Pluronic Acid, 7 μg/mL Glutamate Pyruvate Transaminase and 2 mM sodium pyruvate. Afterwards cells are washed twice with buffer B. Then cells are detached using StemPro Accutase (Fischer Scientific), resuspended in buffer B and seeded in 384 well plate at a density of 30,000 cells per well. Addition of compounds and intracellular Ca^2+ measurements (excitation 485 nm, emission 525 nm) are performed by the fluorescence microplate reader FLIPRTetra (Molecular Devices).
Agonist and negative allosteric modulator activities of compounds are consecutively evaluated on the same cell plate. […] Then, cells are stimulated by an EC80 glutamate concentration and fluorescence is recorded for additional 3 minutes. EC80 glutamate concentration is the concentration giving 80% of the maximal glutamate response. Agonist or negative allosteric modulator activity(ies) are evaluated in comparison to basal signals evoked by buffer B or EC80 glutamate alone, respectively.
For IC50 determination, a dose-response test is performed using 20 concentrations (ranging over 6 logs) of each compound. Dose-response curves are fitted using the sigmoidal dose-response (variable slope) analysis in GraphPad Prism program (Graph Pad Inc) and IC50 of negative allosteric modulator activity is calculated. Dose-response experiments are performed in duplicate, two times independently.

T1 sequence (Q14416 19-872): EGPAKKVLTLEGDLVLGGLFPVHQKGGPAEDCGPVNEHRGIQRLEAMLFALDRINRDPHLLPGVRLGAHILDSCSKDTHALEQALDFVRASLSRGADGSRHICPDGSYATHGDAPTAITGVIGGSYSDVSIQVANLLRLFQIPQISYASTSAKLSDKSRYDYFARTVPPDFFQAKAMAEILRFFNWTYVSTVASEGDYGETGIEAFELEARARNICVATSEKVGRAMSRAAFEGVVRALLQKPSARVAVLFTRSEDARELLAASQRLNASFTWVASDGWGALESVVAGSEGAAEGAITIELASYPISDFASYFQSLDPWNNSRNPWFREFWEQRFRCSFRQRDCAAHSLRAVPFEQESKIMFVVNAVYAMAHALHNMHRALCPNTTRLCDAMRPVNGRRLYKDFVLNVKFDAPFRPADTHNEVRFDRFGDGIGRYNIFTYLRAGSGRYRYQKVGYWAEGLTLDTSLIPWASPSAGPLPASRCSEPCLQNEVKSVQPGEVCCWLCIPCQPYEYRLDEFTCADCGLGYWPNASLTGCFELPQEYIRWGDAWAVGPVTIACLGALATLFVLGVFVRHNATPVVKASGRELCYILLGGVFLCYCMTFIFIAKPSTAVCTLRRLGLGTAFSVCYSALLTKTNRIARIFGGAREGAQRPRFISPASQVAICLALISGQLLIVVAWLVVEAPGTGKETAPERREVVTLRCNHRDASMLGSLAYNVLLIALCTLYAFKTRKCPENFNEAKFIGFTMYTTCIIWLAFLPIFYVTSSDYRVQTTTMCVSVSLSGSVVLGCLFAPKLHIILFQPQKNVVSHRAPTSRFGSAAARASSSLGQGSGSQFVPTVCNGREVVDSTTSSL

Cn1c(=O)c2ccc(C(=O)N3CC(O)C3)cc2n2nc(-c3ccnc(C(F)(F)F)c3)cc12 [Example 110, 8-(3-Hydroxy-azetidine-1-carbonyl)-4-methyl-2-(2-trifluoromethyl-pyridin-4-yl)-4H-pyrazolo[1,5-a]quinazolin-5-one]
IC50 (human mGluR2 (hmGluR2)): < 1000 nM | melting point: > 250 °C

CN(C)c1ccc2c(c1)c(=O)n(C)c1cc(-c3ccnc(C(F)(F)F)c3)nn21 [Example 44, 7-Dimethylamino-4-methyl-2-(2-trifluoromethyl-pyridin-4-yl)-4H-pyrazolo[1,5-a]quinazolin-5-one]
IC50 (human mGluR2 (hmGluR2)): < 1000 nM | melting point: > 250 °C

COc1cc2c(=O)n(C)c3cc(-c4ccnc(C(F)(F)F)c4)nn3c2cc1N1CCC(O)CC1 [Example 90, 8-(4-Hydroxy-piperidin-1-yl)-7-methoxy-4-methyl-2-(2-trifluoromethyl-pyridin-4-yl)-4H-pyrazolo[1,5-a]quinazolin-5-one]
IC50 (human mGluR2 (hmGluR2)): < 1000 nM | melting point: > 250 °C

Cn1c(=O)c2ccccc2n2nc(-c3ccnc(OC4CCC4)c3)cc12 [Example 17, 2-(2-Cyclobutoxy-pyridin-4-yl)-4-methyl-4H-pyrazolo[1,5-a]quinazolin-5-one]
IC50 (human mGluR2 (hmGluR2)): < 1000 nM | melting point: 218 to 222 °C

Cc1ccc2c(c1)c(=O)n(C)c1cc(-c3ccnc(C(F)(F)F)c3)nn21 [Example 34]
IC50 (human mGluR2 (hmGluR2)): < 1000 nM | melting point: 215 to 218 °C

CN(C)c1ccc2c(=O)n(C)c3cc(-c4ccnc(C(F)(F)F)c4)nn3c2c1 [Example 64, 8-Dimethylamino-4-methyl-2-(2-trifluoromethyl-pyridin-4-yl)-4H-pyrazolo[1,5-a]quinazolin-5-one]
IC50 (human mGluR2 (hmGluR2)): < 1000 nM | melting point: > 250 °C

Cn1c(=O)c2ccccc2n2nc(-c3ccnc(OCC(F)F)c3)cc12 [Example 22, 4-Methyl-2-[2-(2,2-difluoro-ethoxy)-pyridin-4-yl]-4H-pyrazolo[1,5-a]quinazolin-5-one]
IC50 (human mGluR2 (hmGluR2)): < 1000 nM | melting point: 209 to 213 °C

Cn1c(=O)c2ccc(F)cc2n2nc(-c3ccnc(C(F)(F)F)c3)cc12 [Example 55, 8-Fluoro-4-methyl-2-(2-trifluoromethyl-pyridin-4-yl)-4H-pyrazolo[1,5-a]quinazolin-5-one]
IC50 (human mGluR2 (hmGluR2)): < 1000 nM | melting point: > 250 °C

Cn1c(=O)c2ccccc2n2nc(-c3ccnc(C#N)c3)cc12 [Example 12, 4-(4-Methyl-5-oxo-4,5-dihydro-pyrazolo[1,5-a]quinazolin-2-yl)-pyridine-2-carbonitrile]
IC50 (human mGluR2 (hmGluR2)): < 1000 nM | melting point: > 250 °C

Cn1c(=O)c2cc(F)c(N3CC(O)C3)cc2n2nc(-c3ccnc(C(F)(F)F)c3)cc12 [Example 119, 7-Fluoro-8-(3-hydroxy-azetidin-1-yl)-4-methyl-2-(2-trifluoromethyl-pyridin-4-yl)-4H-pyrazolo[1,5-a]quinazolin-5-one]
IC50 (human mGluR2 (hmGluR2)): < 1000 nM | melting point: > 250 °C

COc1ccc2c(c1)c(=O)n(C)c1cc(-c3ccnc(OCC(F)(F)F)c3)nn21 [Example 102, 7-Methoxy-4-methyl-2-[2-(2,2,2-trifluoro-ethoxy)-pyridin-4-yl]-4H-pyrazolo[1,5-a]quinazolin-5-one]
IC50 (human mGluR2 (hmGluR2)): < 1000 nM | melting point: 172 to 180 °C

Cn1c(=O)c2ccccc2n2nc(-c3ccnc(OCC4CC4)c3)cc12 [Example 19, 2-(2-Cyclopropylmethoxy-pyridin-4-yl)-4-methyl-4H-pyrazolo[1,5-a]quinazolin-5-one]
IC50 (human mGluR2 (hmGluR2)): < 1000 nM | melting point: 185 to 189 °C

Cn1c(=O)c2cc(F)ccc2n2nc(-c3ccnc(C(F)(F)F)c3)cc12 [Example 38]
IC50 (human mGluR2 (hmGluR2)): < 1000 nM | melting point: > 250 °C

Cn1c(=O)c2cc(O)ccc2n2nc(-c3ccnc(C(F)(F)F)c3)cc12 [Example 48, 7-Hydroxy-4-methyl-2-(2-trifluoromethyl-pyridin-4-yl)-4H-pyrazolo[1,5-a]quinazolin-5-one]
IC50 (human mGluR2 (hmGluR2)): < 1000 nM | melting point: > 250 °C

CCNc1ccc2c(c1)c(=O)n(C)c1cc(-c3ccnc(C(F)(F)F)c3)nn21 [Example 45, 7-Ethylamino-4-methyl-2-(2-trifluoromethyl-pyridin-4-yl)-4H-pyrazolo[1,5-a]quinazolin-5-one]
IC50 (human mGluR2 (hmGluR2)): < 1000 nM | melting point: 239 to 242 °C

CC(C)Oc1cc(-c2cc3n(C)c(=O)c4ccccc4n3n2)ccn1 [Example 16, 2-(2-Isopropoxy-pyridin-4-yl)-4-methyl-4H-pyrazolo[1,5-a]quinazolin-5-one]
IC50 (human mGluR2 (hmGluR2)): < 1000 nM | melting point: 173 to 176 °C

CCCc1cc(-c2cc3n(C)c(=O)c4ccccc4n3n2)ccn1.Cl [Example 4, 2-(2-propyl-pyridin-4-yl)-4-methyl-4H-pyrazolo[1,5-a]quinazolin-5-one]
IC50 (human mGluR2 (hmGluR2)): < 1000 nM | melting point: > 250 °C

Cn1c(=O)c2ccc(N3CCC(O)CC3)cc2n2nc(-c3ccnc(C(F)F)c3)cc12 [Example 115, 2-(2-Difluoromethyl-pyridin-4-yl)-8-(4-hydroxy-piperidin-1-yl)-4-methyl-4H-pyrazolo[1,5-a]quinazolin-5-one]
IC50 (human mGluR2 (hmGluR2)): < 1000 nM | melting point: > 250 °C

CC(C)c1cc(-c2cc3n(C)c(=O)c4ccccc4n3n2)ccn1.Cl [Example 11, 2-(2-Isopropyl-pyridin-4-yl)-4-methyl-4H-pyrazolo[1,5-a]quinazolin-5-one]
IC50 (human mGluR2 (hmGluR2)): < 1000 nM | melting point: > 250 °C

Cn1c(=O)c2ccc(F)cc2n2nc(-c3ccnc(C(F)F)c3)cc12 [Example 114, 2-(2-Difluoromethyl-pyridin-4-yl)-8-fluoro-4-methyl-4H-pyrazolo[1,5-a]quinazolin-5-one]
IC50 (human mGluR2 (hmGluR2)): < 1000 nM | melting point: 220 to 226 °C

COc1ccc2c(c1)c(=O)n(C)c1cc(-c3ccnc(C(F)(F)F)c3)nn21 [Example 36]
IC50 (human mGluR2 (hmGluR2)): < 1000 nM | melting point: 201 to 205 °C

Cn1c(=O)c2ccccc2n2nc(-c3ccnc(C(F)(F)F)c3)cc12 [Example 26, 4-Methyl-2-(2-trifluoromethyl-pyridin-4-yl)-4H-pyrazolo[1,5-a]quinazolin-5-one]
IC50 (human mGluR2 (hmGluR2)): < 1000 nM | melting point: 232 to 244 °C

Cn1c(=O)c2ccccc2n2nc(-c3ccnc(OCC(F)(F)F)c3)cc12 [Example 21, 4-Methyl-2-[2-(2,2,2-trifluoro-ethoxy)-pyridin-4-yl]-4H-pyrazolo[1,5-a]quinazolin-5-one]
IC50 (human mGluR2 (hmGluR2)): < 1000 nM | melting point: 219 to 223 °C

[2H]C([2H])([2H])Nc1ccc2c(c1)c(=O)n(C)c1cc(-c3ccnc(C(F)(F)F)c3)nn21 [Example 41, 4-Methyl-7-methyl(D3)amino-2-(2-trifluoromethyl-pyridin-4-yl)-4H-pyrazolo[1,5-a]quinazolin-5-one]
IC50 (human mGluR2 (hmGluR2)): < 1000 nM | melting point: > 250 °C

Cn1c(=O)c2c(F)cccc2n2nc(-c3ccnc(C(F)(F)F)c3)cc12 [Example 85, 6-Fluoro-4-methyl-2-(2-trifluoromethyl-pyridin-4-yl)-4H-pyrazolo[1,5-a]quinazolin-5-one]
IC50 (human mGluR2 (hmGluR2)): < 1000 nM | melting point: > 250 °C

Cn1c(=O)c2ccccc2n2nc(-c3ccnc(C(F)F)c3)cc12 [Example 31, 4-Methyl-2-(2-difluoromethyl-pyridin-4-yl)-4H-pyrazolo[1,5-a]quinazolin-5-one]
IC50 (human mGluR2 (hmGluR2)): < 1000 nM | melting point: 192 to 196 °C

Cn1c(=O)c2ccc(C(=O)N3CCCC3)cc2n2nc(-c3ccnc(C(F)(F)F)c3)cc12 [Example 82, 4-Methyl-8-(pyrrolidine-1-carbonyl)-2-(2-trifluoromethyl-pyridin-4-yl)-4H-pyrazolo[1,5-a]quinazolin-5-one]
IC50 (human mGluR2 (hmGluR2)): < 1000 nM | melting point: > 250 °C

Cn1c(=O)c2ccc(F)cc2n2nc(-c3ccnc(C4CCC4)c3)cc12 [Example 116, 2-(2-Cyclobutyl-pyridin-4-yl)-8-fluoro-4-methyl-4H-pyrazolo[1,5-a]quinazolin-5-one]
IC50 (human mGluR2 (hmGluR2)): < 1000 nM | melting point: 210 to 220 °C

Cn1c(=O)c2cc(F)c(OC3COC3)cc2n2nc(-c3ccnc(C(F)(F)F)c3)cc12 [Example 120, 7-Fluoro-4-methyl-8-(oxetan-3-yloxy)-2-(2-trifluoromethyl-pyridin-4-yl)-4H-pyrazolo[1,5-a]quinazolin-5-one]
IC50 (human mGluR2 (hmGluR2)): < 1000 nM | melting point: > 250 °C
